Measured values published in US20160129089A1, “COMBINATION THERAPY” (ANTISENSE THERAPEUTICS LTD, priority 2013, published 2016).
“Also recorded” adds a separate entry of the source. Where two headings read alike, the source gives them in different places. Marks after values point to notes of the source that are not given here.

How the values were obtained:
[1] = system: human growth hormone receptor mRNA; test: Inhibition of human growth hormone receptor mRNA levels by antisense oligonucleotides, quantitative real-time PCR, MCF7 cells; format: cell-based; set-up: concentration or dose not given beside the values; settings: averages from three experiments
IGF-I = test: Phase I trial: pharmacodynamic effect on serum IGF-I levels; format: in vivo, human; settings: for Serum IGF-I change from pre-dose, Mean ± SD / Serum IGF-I % change from pre-dose: n=6
Excerpt: A secondary objective of this study was to obtain data on the pharmacodynamic effects of ATL1103 on the IGF-I levels in the blood of the trial subjects. Reduction of increased levels of serum IGF-I to normal is the therapeutic endpoint in the treatment of the growth disorder acromegaly, and reducing the effects of IGF-I has a potential role in the treatment of diabetic retinopathy, nephropathy and certain forms of cancer.
(§1) As defined in the statistical analysis plan, the effect of ATL1103 on serum IGF-I was assessed as a change in IGF-I levels versus baseline (starting point) readings for those subjects who received treatment (ATL1103). Pre-dose baseline levels of IGF-I were recorded prior to the commencement of dosing and then measured at weekly intervals until the end of the monitoring period. […] Other exploratory objectives of the study investigated the drug's mechanism of action and broader pharmacological profile, including the pharmacodynamic effects on levels of growth hormone binding protein (GHBP), insulin-like growth factor binding protein 3 (IGFBP-3), acid labile subunit of the insulin-like growth factor binding protein complex (ALS), and growth hormone (GH), as well as in vitro mitogenic and apoptotic parameters.

[2] = system: growth hormone binding protein (GHBP); test: Phase I trial: exploratory PD, circulating GHBP; format: in vivo, human; settings: for GHBP % change from pre-dose / GHBP mean change from pre-dose: Stage B, n=6
Experimental: as §1

[3] = system: insulin-like growth factor binding protein 3 (IGF-BP3); test: Phase I trial: exploratory PD, IGF-BP3; format: in vivo, human; settings: for IGF-BP3 % change from pre-dose / IGF-BP3 mean change from pre-dose: Stage B, n=6
Experimental: as §1

[4] = system: insulin-like growth factor II (IGF-II); test: Phase I trial: exploratory PD, IGF-II; format: in vivo, human; settings: Stage B, n=6
[5] = system: insulin-like growth factor acid-labile subunit (ALS); test: Phase I trial: exploratory PD, ALS; format: in vivo, human; settings: for ALS % change from pre-dose / ALS mean change from pre-dose: Stage B, n=6
Experimental: as §1

growth hormone (GH) = test: Phase I trial: exploratory PD, growth hormone levels; format: in vivo, human; settings: listed as ATL1103
Experimental: as §1

liver GHr RNA = test: Monotherapy and combination mouse study: relative liver GHR RNA; format: in vivo, mice; settings: week 3, p=0.001
Excerpt: (§2) The GHr and IGF-I RNA data were statistically analysed using one-way ANOVA followed by Dunnetts test when comparing treated to saline control. The sIGF-I data were statistically analyzed using one-way […] comparisons.

liver IGF-I RNA = test: Monotherapy and combination mouse study: relative liver IGF-I RNA; format: in vivo, mice; settings: week 3, p=0.001
Excerpt: as §2

serum IGF-I = test: Monotherapy and combination mouse study: serum IGF-I; format: in vivo, mice
Excerpt: as §2

[6] = system: serum insulin like growth factor I (IGF-I); test: Phase II trial in patients with acromegaly: serum IGF-I reduction; format: in vivo, human
Excerpt: The primary endpoints or main purposes of the trial were (i) to evaluate the safety and tolerability of ATL1103 in patients with acromegaly, and (ii) to evaluate the single dose and multiple dose pharmacokinetic profiles of ATL1103 via the subcutaneous route in patients with acromegaly.

[7] = human, in vivo
Experimental: (§3) The primary objective of the Phase I trial was to assess the safety, tolerability and pharmacokinetics (pK) of ATL1103.
(§4) The Phase I trial was a randomized, placebo controlled, double blind study of single ascending doses and multiple doses of ATL1103 in healthy adult male subjects aged between 18 and 45 years. In the single ascending dose stage of the trial, 24 subjects were administered four dose levels of ATL1103 as a single injection starting at 25 mg and escalating to 75, 250 and 400 mg or placebo. The multiple dose stage was undertaken in 12 subjects, 8 who were to receive six subcutaneous doses of 250 mg of ATL1103 and 4 subjects who received placebo administered on days 1, 3, 5, 7, 14 and 21. Subjects were monitored out to day 35.

[8] = human, in vivo, sc
Excerpt: The Phase I trial was a randomized, placebo controlled, double blind study of single ascending doses and multiple doses of ATL1103 in healthy adult male subjects aged between 18 and 45 years. […] Subjects were monitored out to day 35.

[9] = Phase I trial: safety and tolerability of subcutaneous ATL1103 in healthy adult male subjects
Experimental: as §3, §4

[10] = ATL1103 12 mg/kg, 3 times in first week then 2 times weekly
[11] = ATL1103 25 mg/kg, 2 times weekly, compared to saline control

tcagggcattctttccattc (TCAGGGCATTCTTTCCATTC; chemistry not given here) [ISIS 227452]
% INHIB (inhibitory effect on hGHR mRNA levels) [1]: 79%
Serum IGF-I change from pre-dose, Mean ± SD (IGF-I; Stage B, 250 mg multiple dose, Day 3): +2.65 ± 9.47 nmol/L
trend of serum IGF-I levels versus baseline (IGF-I; Stage B, from day 14 on, listed as ATL1103): trend in reduction in IGF-I levels from day 14 to day 28; also recorded: For IGF-I there was a clear trend for mean levels to be lower than baseline on days D14, 21, 28, 35 of
Serum IGF-I % change from pre-dose (IGF-I; Stage B, Day 3): 12%
Serum IGF-I % change from pre-dose (IGF-I; Stage B, Day 5): 6%
Serum IGF-I change from pre-dose, Mean ± SD (IGF-I; Stage B, Day 5): +0.32 ± 7.42 nmol/L
Serum IGF-I % change from pre-dose (IGF-I; Stage B, Day 7): 6%
Serum IGF-I change from pre-dose, Mean ± SD (IGF-I; Stage B, Day 7): +0.77 ± 7.51 nmol/L
Serum IGF-I % change from pre-dose (IGF-I; Stage B, Day 14): −2%
Serum IGF-I change from pre-dose, Mean ± SD (IGF-I; Stage B, Day 14): -1.43 ± 7.19 nmol/L
Serum IGF-I % change from pre-dose (IGF-I; Stage B, Day 21): −7%
Serum IGF-I change from pre-dose, Mean ± SD (IGF-I; Stage B, Day 21): -3.40 ± 3.59 nmol/L
Serum IGF-I % change from pre-dose (IGF-I; Stage B, Day 28): −7%
Serum IGF-I change from pre-dose, Mean ± SD (IGF-I; Stage B, Day 28): -3.43 ± 7.53 nmol/L
Serum IGF-I % change from pre-dose (IGF-I; Stage B, Day 35): −1%
Serum IGF-I change from pre-dose, Mean ± SD (IGF-I; Stage B, Day 35): -1.9 ± 5.08 nmol/L
reduction in mean IGF-I levels versus baseline (IGF-I; day 21, p=0.034 one sided t-test): 7%
GHBP % change from pre-dose ([2]; Day 7): (0%)
GHBP mean change from pre-dose ([2]; Day 7): -31.2 pmol/L
GHBP % change from pre-dose ([2]; Day 21): (−16%)
GHBP mean change from pre-dose ([2]; Day 21): −169.5** pmol/L
GHBP % change from pre-dose ([2]; Day 28): (−19%)
GHBP mean change from pre-dose ([2]; Day 28): −233.3* pmol/L
reduction of GHBP ([2]; day 21, p=0.007): 16%
reduction of GHBP ([2]; day 28, one week past the last dose, p<0.05): 19%
effect on IGFBP-3 ([3]; Phase I multiple dose stage): significantly reduced
IGF-BP3 % change from pre-dose ([3]; Day 7): (−10%)
IGF-BP3 mean change from pre-dose ([3]; Day 7): −310.5** ng/ml
IGF-BP3 % change from pre-dose ([3]; Day 21): (−8%)
IGF-BP3 mean change from pre-dose ([3]; Day 21): −228.3* ng/ml
IGF-BP3 % change from pre-dose ([3]; Day 28): (−5%)
IGF-BP3 mean change from pre-dose ([3]; Day 28): -160.5 ng/mL
IGF-II % change from pre-dose ([4]; Day 7): (−14%)
IGF-II mean change from pre-dose ([4]; Day 7): −101.8*** ng/ml
IGF-II % change from pre-dose ([4]; Day 21): (−8%)
IGF-II mean change from pre-dose ([4]; Day 21): -57.5 ng/mL
IGF-II % change from pre-dose ([4]; Day 28): (−5%)
IGF-II mean change from pre-dose ([4]; Day 28): -29.2 ng/mL
effect on ALS ([5]; Phase I multiple dose stage): significantly reduced
ALS % change from pre-dose ([5]; Day 7): (−5%)
ALS mean change from pre-dose ([5]; Day 7): −115.3 mU/ml
ALS % change from pre-dose ([5]; Day 21): (−9%)
ALS mean change from pre-dose ([5]; Day 21): −160.7 mU/ml
ALS % change from pre-dose ([5]; Day 28): (−10%)
ALS mean change from pre-dose ([5]; Day 28): −188.7* mU/ml
effect on GH levels (growth hormone (GH)): no effect; also recorded: No treatment-related effects were apparent in growth hormone levels (data not shown)
reduction of liver GHr RNA (liver GHr RNA; [10]): 99%
reduction of liver GHr RNA (liver GHr RNA; [11]): 99.7%
reduction of liver IGF-I RNA (liver IGF-I RNA; [10]): 64.3%
reduction of liver IGF-I RNA (liver IGF-I RNA; [11]): 76.2%
reduction of sIGF-I (serum IGF-I; ATL1103 25 mg/kg 2 times weekly monotherapy, week 1, compared to baseline control levels, p<0.013): 25%
reduction of sIGF-I (serum IGF-I; ATL1103 25 mg/kg, 2 times weekly, week 1, compared to control saline, p=0.0070): 36.5%
reduction of sIGF-I (serum IGF-I; ATL1103 25 mg/kg, 2 times weekly, week 2, compared to control saline, p=0.004): 41.5%
reduction of serum IGF-I (serum IGF-I; ATL1103 25 mg/kg, 2 times weekly, week 3, compared to saline control, p=0.003): 44.5%
reduction in mean sIGF-I levels ([6]; 200 mg per week dose, week 14): no consistent reduction
mean reduction in sIGF-I compared to baseline ([6]; 400 mg per week (twice weekly 200 mg), 4 patients with acromegaly, week 14): 30%
mean reduction in sIGF-I compared to baseline ([6]; 400 mg per week, 3 patients with lower body weights (58-83 kg, below 85 kg), approx. 4.8-6.9 mg/kg, week 14): 38%
range of sIGF-I reduction ([6]; 400 mg per week, 3 patients with lower body weights, week 14): 28-48%
time course of sIGF-I (FIG. 1) ([6]; twice weekly 200 mg (400 mg per week), over the dosing period): progressive rate of reduction
injection site reactions, number of events [7]: adverse events were injection site reactions (13).
number of treatment-emergent adverse events (TEAE) [7]: There were 24 treatment-emergent adverse events (TEAE) in Stage A (19 in the 16 ATL1103-treated
overall safety and tolerability [7]: ATL1103 was considered safe and generally well tolerated at the doses used in the study
pain at injection site, number of events [7]: treated subjects most common adverse events reported were pain at injection site (6), headache
severity of TEAE [7]: subjects, 5 in the 8 placebo-treated subjects), all reported as mild or moderate. In the ATL1103-
severity of all adverse events [7]: mild to moderate
AUClast ([8]; 25 mg): 3711 ± 822 ng·h/mL
Cmax ([8]; 25 mg): 466 ± 136 ng/mL
Tmax ([8]; 25 mg): 3.25 ± 0.5 h
AUClast ([8]; 75 mg): 21342 ± 4755 ng·h/mL
Cmax ([8]; 75 mg): 3139 ± 1576 ng/mL
Tmax ([8]; 75 mg): 3.25 ± 0.96 h
AUClast ([8]; 250 mg): 88942 ± 11295 ng·h/mL
Cmax ([8]; 250 mg): 12383 ± 3000 ng/mL
Tmax ([8]; 250 mg): 2.5 ± 1.29 h
AUClast ([8]; 400 mg): 151123 ± 29434 ng·h/mL
Cmax ([8]; 400 mg): 14343 ± 2823 ng/mL
Tmax ([8]; 400 mg): 3.25 ± 0.96 h
headache, number of events ([9]; Stage A, ATL1103-treated subjects): 5
influenza-like illness, number of events ([9]; Stage A, ATL1103-treated subjects (after single doses of 400 mg)): 2
influenza-like illness ([9]; after repeated doses of 250 mg): single doses of 400 mg ATL1103, this was not seen after repeated doses of 250 mg.
